From patent publication US10201531B2, “Indazolyl-oxo-isothiazole compounds” (MOCHIDA PHARMACEUTICAL CO., LTD., priority 2015, dated 2019)

tested on: Nrf2; experiment: Evaluation of Nrf2 activation ability (Nrf2d-LacZ / Keap1 HEK293 reporter, Beta-Glo luminescence); type: cell-based, human; conditions: Pharmacological Test Example 1, rated A/B/C
In short: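 HEK293 cells stably expressing a human Nrf2 degron–LacZ fusion plus human Keap1 were exposed to compound for 3 h at 37° C. Reporter β-galactosidase was read by Beta-Glo luminescence after 1 h at RT. Activation is given as % of the signal with 100 nM CDDO-Im.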

SMILES	EC50 [nM]
[O-][s+]1nc(O)cc1-n1cc(CCc2ccc(Cl)nc2)cn1 (stereo not shown) [Example 452]	1000 to 5000
[O-][s+]1nc(O)cc1-n1cc(-c2cccc3cccnc23)cn1 (stereo not shown) [Example 382]	< 1000
[O-][s+]1nc(O)cc1-n1cc(-c2ccccc2-c2ccccc2)cn1 (stereo not shown) [Example 328]	1000 to 5000
[O-][s+]1nc(O)cc1-n1cc(-c2ccc(OCc3cccc(C(F)(F)F)c3)cc2)cn1 (stereo not shown) [Example 375]	1000 to 5000
COc1ccc(-c2ccc(-c3cnn(-c4cc(O)n[s+]4[O-])c3)cn2)cn1 (stereo not shown) [Example 444]	< 1000
[O-][s+]1nc(O)cc1-n1cc(-c2ccc3cccnc3c2)cn1 (stereo not shown) [Example 357]	< 1000
Cc1cccc(C)c1COc1ccc(-c2cnn(-c3cc(O)n[s+]3[O-])c2)cc1 (stereo not shown) [Example 376]	1000 to 5000
[O-][s+]1nc(O)cc1-n1cc(-c2ccc3ncccc3c2)cn1 (stereo not shown) [Example 350]	< 1000
[O-][s+]1nc(O)cc1-n1cc2cc(-c3cnccn3)ccc2n1 (stereo not shown) [Example 417]	1000 to 5000
COc1nc(Cl)ccc1-c1cnn(-c2cc(O)n[s+]2[O-])c1 (stereo not shown) [Example 435]	< 1000
[O-][s+]1nc(O)cc1-n1cc(CCOc2cccnc2)cn1 (stereo not shown) [Example 412]	1000 to 5000
COc1nc(-c2ccc(N3CCCC3)nc2)ccc1-c1cnn(-c2cc(O)n[s+]2[O-])c1 (single isomer, unassigned) [Example 453]	< 1000
[O-][s+]1nc(O)cc1-n1cc(C2Cc3ccccc3C2)cn1 (stereo not shown) [Example 397]	< 1000
[O-][s+]1nc(O)cc1-n1cc(-c2ccc(F)nc2)cn1 (stereo not shown) [Example 438]	1000 to 5000
[O-][s+]1nc(O)cc1-n1cc(-n2cccn2)cn1 (stereo not shown) [Example 422]	5000 to 10000
COc1nc(-c2ccnc(N3CCCC3)c2)ccc1-c1cnn(-c2cc(O)n[s+]2[O-])c1 (stereo not shown) [Example 454]	< 1000

same assay, conditions: rated A/B/C, Pharmacological Test Example 1

SMILES	EC50 [nM]
[O-][s+]1nc(O)cc1-n1ncc2cc(-c3cncc(N4CCCCC4)c3)ccc21 (stereo not shown) [Example 153]	< 1000
COc1ccc(CN2Cc3cnn(-c4cc(O)n[s+]4[O-])c3C2)cn1 (stereo not shown) [Example 266]	5000 to 10000
CN1CC(C)(C)Oc2cc(-c3ccc4c(cnn4-c4cc(O)n[s+]4[O-])c3)cnc21 (stereo not shown) [Example 188]	< 1000
[O-][s+]1nc(O)cc1-n1ncc2cc(-c3cnc(C4CC4)cn3)ccc21 (stereo not shown) [Example 122]	1000 to 5000
[O-][s+]1nc(O)cc1-n1ncc2ccc(C(F)(F)F)cc21 (stereo not shown) [Example 33]	1000 to 5000
Cc1cccc2c1cnn2-c1cc(O)n[s+]1[O-] (stereo not shown) [Example 23]	1000 to 5000
[O-][s+]1nc(O)cc1-n1ncc2cc(-c3ccccc3Cl)ccc21 (stereo not shown) [Example 40]	< 1000
CN1CCOc2cc(-c3ccc4c(cnn4-c4cc(O)n[s+]4[O-])c3)c(C#N)nc21 (stereo not shown) [Example 184]	< 1000
[O-][s+]1nc(O)cc1-n1cc(C2CCOCC2)cn1 (stereo not shown) [Example 308]	5000 to 10000
COc1cc(C)c2cnn(-c3cc(O)n[s+]3[O-])c2c1 (stereo not shown) [Example 196]	1000 to 5000
[O-][s+]1nc(O)cc1-n1ncc2c1CCN(Cc1ccccc1)C2 (stereo not shown) [Example 252]	1000 to 5000
[O-][s+]1nc(O)cc1-n1ncc2c(OCc3ccccc3)cccc21 (stereo not shown) [Example 30]	5000 to 10000
[O-][s+]1nc(O)cc1-n1ncc2c1CN(Cc1ccc(C(F)(F)F)nc1)C2 (stereo not shown) [Example 265]	5000 to 10000
O=C(c1ccc(-c2ccc3c(cnn3-c3cc(O)n[s+]3[O-])c2)cn1)N1CCCC1 (stereo not shown) [Example 157]	1000 to 5000
[O-][s+]1nc(O)cc1-n1ncc2cc(-c3cccc(CN4CCOCC4)c3)ccc21 (stereo not shown) [Example 77]	< 1000
[O-][s+]1nc(O)cc1-n1ncc2cc(-c3ccc(C4CC4)nc3)ncc21 (stereo not shown) [Example 237]	< 1000
Cc1cccc(-c2ccc3c(cnn3-c3cc(O)n[s+]3[O-])c2)n1 (stereo not shown) [Example 117]	< 1000
[O-][s+]1nc(O)cc1-n1ncc2cccc(Cl)c21 (stereo not shown) [Example 37]	1000 to 5000

SMILES	EC50 [nM]
[O-][s+]1nc(O)cc1-n1ncc2cc(C(F)(F)F)ccc21 (stereo not shown) [Example 14]	< 1000
COc1nn(-c2cc(O)n[s+]2[O-])c2ccc(-c3cnc4c(c3)OCCN4C)cc12 (stereo not shown) [Example 223]	1000 to 5000
O=c1ccc(-c2ccc3c(cnn3-c3cc(O)n[s+]3[O-])c2)c[nH]1 (stereo not shown) [Example 125]	1000 to 5000
[O-][s+]1nc(O)cc1-n1ncc2cc(-c3cnc4c(c3)OCC3CCCN43)ccc21 (stereo not shown) [Example 212]	< 1000
COc1cc(Br)cc2c1cnn2-c1cc(O)n[s+]1[O-] (stereo not shown) [Example 177]	< 1000
COc1cc(-c2ccc3c(cnn3-c3cc(O)n[s+]3[O-])c2)cnc1N(C)C (stereo not shown) [Example 173]	< 1000
[O-][s+]1nc(O)cc1-n1ncc2c(-c3cncnc3)cccc21 (stereo not shown) [Example 81]	5000 to 10000
CC1COc2cc(-c3ccc4c(cnn4-c4cc(O)n[s+]4[O-])c3)cnc2N1 (stereo not shown) [Example 10]	< 1000
[O-][s+]1nc(O)cc1-n1ncc2c3ccccc3ncc21 (stereo not shown) [Example 239]	< 1000
COc1cc(-c2cncc(C)c2)cc2c1cnn2-c1cc(O)n[s+]1[O-] (stereo not shown) [Example 195]	1000 to 5000
CC(C)(C)OC(=O)N1CC=C(c2cnn(-c3cc(O)n[s+]3[O-])c2)CC1 (stereo not shown) [Example 304]	1000 to 5000
[O-][s+]1nc(O)cc1-n1ncc2cc(C3=CCOCC3)ncc21 (stereo not shown) [Example 236]	1000 to 5000
[O-][s+]1nc(O)cc1-n1ncc2c1CCN(CC1CCCCC1)C2 (single isomer, unassigned) [Example 257]	1000 to 5000
[O-][s+]1nc(O)cc1-n1ncc2cc(-c3ccc(Cl)cn3)ccc21 (stereo not shown) [Example 121]	1000 to 5000
COc1cc2c(cnn2-c2cc(O)n[s+]2[O-])cc1C1=CCN(C(=O)OC(C)(C)C)CC1 (stereo not shown) [Example 71]	1000 to 5000
COc1ccc(CN2CCc3c(cnn3-c3cc(O)n[s+]3[O-])C2)cn1 (stereo not shown) [Example 261]	1000 to 5000
COc1cc(-c2cncc(C)c2)c2cnn(-c3cc(O)n[s+]3[O-])c2c1 (stereo not shown) [Example 167]	1000 to 5000
[O-][s+]1nc(O)cc1-n1ncc2ccc(-c3ccc(N4CCCC4)nc3)cc21 (stereo not shown) [Example 106]	1000 to 5000
